Source: ChEMBL document CHEMBL1124446, “Synthesis of some novel potent and selective catechol O-methyltransferase inhibitors” (J Med Chem, 1989)

Target: T1, Catechol O-methyltransferase (Rattus norvegicus, UniProt P22734)
T1 sequence (P22734 whole entry): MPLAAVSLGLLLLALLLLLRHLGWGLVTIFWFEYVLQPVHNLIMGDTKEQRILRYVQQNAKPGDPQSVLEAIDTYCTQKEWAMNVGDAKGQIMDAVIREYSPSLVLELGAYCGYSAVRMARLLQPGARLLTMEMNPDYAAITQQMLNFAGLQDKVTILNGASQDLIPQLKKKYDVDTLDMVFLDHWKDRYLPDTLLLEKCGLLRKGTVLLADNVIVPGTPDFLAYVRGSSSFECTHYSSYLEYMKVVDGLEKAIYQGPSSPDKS
Test: In vitro inhibitory activity against catechol O-methyltransferase of rat brain using 3,4-dihydroxybenzoic acid as the substrate.
Details: not given

| Compound | IC50 [nM] |
| --- | --- |
| N#CC(C#N)=Cc1cc(O)c(O)c([N+](=O)[O-])c1 | 20 |
| O=Cc1cc(O)c(O)c(C(F)(F)F)c1 | 2300 |
| CC(=O)/C(C)=C/c1cc(O)c(O)c([N+](=O)[O-])c1 | 12 |
| N#Cc1cc(C(=O)NC23CC4CC(CC(C4)C2)C3)cc(O)c1O | 90 |
| CN(C)C(=O)/C(C#N)=C/c1cc(O)c(O)c([N+](=O)[O-])c1 | 18 |
| O=C(NC12CC3CC(CC(C3)C1)C2)c1cc(O)c(O)c(Cl)c1 | 400 |
| COc1cc(C(=O)/C=C/c2cc(O)c(O)c([N+](=O)[O-])c2)cc(OC)c1OC | 5 |
| O=C(O)CCCCc1cc(O)c(O)c(Cl)c1 | 8000 |
| CC(=O)c1cc(O)c(O)c([N+](=O)[O-])c1 | 16 |
| O=C(NC12CC3CC(CC(C3)C1)C2)c1ccc(O)c(O)c1Cl | 12000 |
| N#Cc1cc(C=O)cc(O)c1O | 160 |
| O=C(NC12CC3CC(CC(C3)C1)C2)c1cc(O)c(O)cc1Cl | 2700 |
| N#Cc1cc(O)c(O)c([N+](=O)[O-])c1 | 30 |
| O=C(/C=C/c1cc(O)c(O)c([N+](=O)[O-])c1)c1ccccc1 | 6 |
| O=C(O)c1cc(O)c(O)c([N+](=O)[O-])c1 | 620 |
| O=C1/C(=C/c2cc(O)c(O)c([N+](=O)[O-])c2)CC/C1=C\c1cc(O)c(O)c([N+](=O)[O-])c1 | 3 |
| O=C(NC12CC3CC(CC(C3)C1)C2)c1cc(O)c(O)c([N+](=O)[O-])c1 | 19 |
| O=C(NC12CC3CC(CC(C3)C1)C2)c1cc(O)c(O)cc1[N+](=O)[O-] | 1100 |
| CCOC(=O)/C(C#N)=C/c1cc(O)c(O)c([N+](=O)[O-])c1 | 50 |
| CC(C)C(=O)c1ccc(O)c(O)c1 | 6000 |
| O=C(O)CCCCc1cc(O)c(O)c([N+](=O)[O-])c1 | 90 |
| CS(=O)(=O)c1cc(C=O)cc(O)c1O | 20000 |
| CC(=O)C(=Cc1cc(O)c(O)c(C(F)(F)F)c1)C(C)=O | 1500 |
| O=[N+]([O-])c1cc(Cl)cc(O)c1O | 25 |
| O=[N+]([O-])c1cc(CO)cc(O)c1O | 180 |
| O=Cc1cc(O)c(O)c(C=O)c1 | 160 |
| O=Cc1cc(O)c(O)c([N+](=O)[O-])c1 [3,4-DIHYDROXY-5-NITROBENZALDEHYDE] | 24 |
| CC(=O)C(=Cc1cc(O)c(O)c([N+](=O)[O-])c1)C(C)=O [NITECAPONE] | 18 |

Species: Rattus norvegicus
Test: Compound was tested for acute oral toxicity in Wistar rats
Assay type: organism-based
Details: in vivo

| Compound | Toxicity [mg/kg] |
| --- | --- |
| CC(=O)C(=Cc1cc(O)c(O)c([N+](=O)[O-])c1)C(C)=O [NITECAPONE] | 2500 |

Target: T2, Amine oxidase [flavin-containing] B (Rattus norvegicus, UniProt P19643)
T2 sequence (P19643 whole entry): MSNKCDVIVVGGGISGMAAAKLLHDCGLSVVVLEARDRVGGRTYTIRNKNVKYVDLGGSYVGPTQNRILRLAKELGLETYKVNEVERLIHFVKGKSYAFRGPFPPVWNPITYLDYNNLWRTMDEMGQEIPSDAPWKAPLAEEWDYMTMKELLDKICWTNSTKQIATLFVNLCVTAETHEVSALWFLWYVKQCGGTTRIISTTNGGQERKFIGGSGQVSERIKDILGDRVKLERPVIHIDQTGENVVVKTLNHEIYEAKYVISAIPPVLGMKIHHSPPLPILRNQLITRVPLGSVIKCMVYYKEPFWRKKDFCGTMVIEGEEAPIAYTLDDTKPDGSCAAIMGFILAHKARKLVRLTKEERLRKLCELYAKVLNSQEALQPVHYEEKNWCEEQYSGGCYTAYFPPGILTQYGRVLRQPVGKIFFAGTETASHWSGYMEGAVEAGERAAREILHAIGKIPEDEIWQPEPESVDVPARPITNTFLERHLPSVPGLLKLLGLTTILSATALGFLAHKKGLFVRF
Test: Inhibitory activity against the Monoamine oxidase B
Details: not given

| Compound | IC50 [nM] |
| --- | --- |
| COc1cc(C(=O)/C=C/c2cc(O)c(O)c([N+](=O)[O-])c2)cc(OC)c1OC | > 50000 |
| O=C(/C=C/c1cc(O)c(O)c([N+](=O)[O-])c1)c1ccccc1 | > 50000 |
| CC(C)C(=O)c1ccc(O)c(O)c1 | > 50000 |

Target: T3, Amine oxidase [flavin-containing] A (Mus musculus, UniProt Q64133)
T3 sequence (Q64133 whole entry): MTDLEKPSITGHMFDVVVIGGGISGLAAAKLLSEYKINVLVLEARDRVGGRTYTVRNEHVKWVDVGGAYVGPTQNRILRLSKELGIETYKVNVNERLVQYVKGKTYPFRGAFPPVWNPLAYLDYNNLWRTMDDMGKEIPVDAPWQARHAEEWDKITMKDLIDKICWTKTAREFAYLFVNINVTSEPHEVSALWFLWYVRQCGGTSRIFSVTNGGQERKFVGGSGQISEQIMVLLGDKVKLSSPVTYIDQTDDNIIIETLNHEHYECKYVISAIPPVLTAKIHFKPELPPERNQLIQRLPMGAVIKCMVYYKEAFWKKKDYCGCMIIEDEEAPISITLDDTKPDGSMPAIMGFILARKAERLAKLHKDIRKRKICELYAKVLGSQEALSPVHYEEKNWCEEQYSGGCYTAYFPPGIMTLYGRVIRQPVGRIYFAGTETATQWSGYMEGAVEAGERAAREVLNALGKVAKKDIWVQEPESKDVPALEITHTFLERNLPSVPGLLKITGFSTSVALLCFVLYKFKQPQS
Test: Inhibitory activity against the Monoamine oxidase A
Details: not given

| Compound | IC50 [nM] |
| --- | --- |
| COc1cc(C(=O)/C=C/c2cc(O)c(O)c([N+](=O)[O-])c2)cc(OC)c1OC | > 50000 |
| O=C(/C=C/c1cc(O)c(O)c([N+](=O)[O-])c1)c1ccccc1 | > 50000 |
| CC(C)C(=O)c1ccc(O)c(O)c1 | > 50000 |

Tested on: Rattus norvegicus
Test: Inhibition of formation of 3OMD in rat serum by 80 %, when compound was administered in combination with L-Dopa and carbidopa
Assay type: functional
Details: not given

| Compound | Oral dose [mg/kg] |
| --- | --- |
| CC(=O)C(=Cc1cc(O)c(O)c([N+](=O)[O-])c1)C(C)=O [NITECAPONE] | 30 |

Target: T4, Tyrosine 3-monooxygenase (Bos taurus, UniProt P17289)
T4 sequence (P17289 whole entry): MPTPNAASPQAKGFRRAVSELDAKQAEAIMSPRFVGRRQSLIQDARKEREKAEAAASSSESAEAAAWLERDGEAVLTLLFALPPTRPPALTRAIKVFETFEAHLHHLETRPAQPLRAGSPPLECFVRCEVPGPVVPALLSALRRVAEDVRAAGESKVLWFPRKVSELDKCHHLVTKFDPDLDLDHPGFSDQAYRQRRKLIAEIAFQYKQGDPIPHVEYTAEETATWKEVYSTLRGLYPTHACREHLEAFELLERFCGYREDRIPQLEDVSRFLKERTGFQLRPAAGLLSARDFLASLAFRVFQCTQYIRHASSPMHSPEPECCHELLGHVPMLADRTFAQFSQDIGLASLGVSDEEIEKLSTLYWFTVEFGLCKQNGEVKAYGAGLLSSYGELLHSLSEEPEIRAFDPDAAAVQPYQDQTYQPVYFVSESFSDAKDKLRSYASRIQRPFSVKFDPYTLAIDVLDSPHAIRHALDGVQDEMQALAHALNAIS
Test: Inhibitory activity against the tyrosine hydroxylase
Details: not given

| Compound | IC50 [nM] |
| --- | --- |
| COc1cc(C(=O)/C=C/c2cc(O)c(O)c([N+](=O)[O-])c2)cc(OC)c1OC | 21000 |
| O=C(/C=C/c1cc(O)c(O)c([N+](=O)[O-])c1)c1ccccc1 | 50000 |
| CC(C)C(=O)c1ccc(O)c(O)c1 | 24000 |

Target: T5, Dopamine beta-hydroxylase (Homo sapiens, UniProt P09172)
T5 sequence (P09172 whole entry): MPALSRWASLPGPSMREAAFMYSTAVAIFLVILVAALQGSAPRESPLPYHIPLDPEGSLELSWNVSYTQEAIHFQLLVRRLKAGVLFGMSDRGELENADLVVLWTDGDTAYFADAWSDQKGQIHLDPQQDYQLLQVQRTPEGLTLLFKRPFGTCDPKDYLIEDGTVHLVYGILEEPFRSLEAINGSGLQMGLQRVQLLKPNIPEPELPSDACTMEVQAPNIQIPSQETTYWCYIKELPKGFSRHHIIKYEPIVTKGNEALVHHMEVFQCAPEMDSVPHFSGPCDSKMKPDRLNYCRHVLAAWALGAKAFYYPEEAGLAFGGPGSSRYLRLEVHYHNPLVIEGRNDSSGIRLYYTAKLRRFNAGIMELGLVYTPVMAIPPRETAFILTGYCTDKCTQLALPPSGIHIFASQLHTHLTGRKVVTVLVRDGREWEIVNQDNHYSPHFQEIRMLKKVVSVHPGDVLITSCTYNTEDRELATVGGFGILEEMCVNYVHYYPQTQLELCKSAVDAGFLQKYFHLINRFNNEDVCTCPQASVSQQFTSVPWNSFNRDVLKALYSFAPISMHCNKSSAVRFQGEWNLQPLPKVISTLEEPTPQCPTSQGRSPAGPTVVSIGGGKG
Test: Inhibitory activity against the dopamine beta hydroxylase
Details: not given

| Compound | IC50 [nM] |
| --- | --- |
| COc1cc(C(=O)/C=C/c2cc(O)c(O)c([N+](=O)[O-])c2)cc(OC)c1OC | > 50000 |
| O=C(/C=C/c1cc(O)c(O)c([N+](=O)[O-])c1)c1ccccc1 | > 50000 |
| CC(C)C(=O)c1ccc(O)c(O)c1 | > 50000 |

Target: T6, Aromatic-L-amino-acid decarboxylase (Sus scrofa, UniProt P80041)
T6 sequence (P80041 whole entry): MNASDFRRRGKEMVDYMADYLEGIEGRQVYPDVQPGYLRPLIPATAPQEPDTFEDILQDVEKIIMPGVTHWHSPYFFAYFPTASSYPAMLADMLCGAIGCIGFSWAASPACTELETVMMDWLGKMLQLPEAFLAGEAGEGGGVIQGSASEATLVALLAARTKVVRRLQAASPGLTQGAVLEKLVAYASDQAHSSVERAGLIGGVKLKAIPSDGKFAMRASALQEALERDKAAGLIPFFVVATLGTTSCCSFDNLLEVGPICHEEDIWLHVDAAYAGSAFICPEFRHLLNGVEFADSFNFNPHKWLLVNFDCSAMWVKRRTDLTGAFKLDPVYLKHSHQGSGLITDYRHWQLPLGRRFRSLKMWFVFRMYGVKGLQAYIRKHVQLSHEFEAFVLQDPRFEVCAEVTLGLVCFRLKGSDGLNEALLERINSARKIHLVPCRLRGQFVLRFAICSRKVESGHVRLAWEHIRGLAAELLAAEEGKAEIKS
Test: Inhibitory activity against the dopamine decarboxylase
Details: not given

| Compound | IC50 [nM] |
| --- | --- |
| COc1cc(C(=O)/C=C/c2cc(O)c(O)c([N+](=O)[O-])c2)cc(OC)c1OC | > 50000 |
| O=C(/C=C/c1cc(O)c(O)c([N+](=O)[O-])c1)c1ccccc1 | > 50000 |
| CC(C)C(=O)c1ccc(O)c(O)c1 | > 50000 |

Target: not listed separately
Test: Inhibitory activity against Phenol sulfotransferase
Details: not given

| Compound | IC50 [nM] |
| --- | --- |
| CC(=O)c1cc(O)c(O)c([N+](=O)[O-])c1 | 125000 |
| O=[N+]([O-])c1cc(O)c(O)c([N+](=O)[O-])c1 [3,5-DINITROCATECHOL (OR-486)] | 150000 |
| CC(=O)C(=Cc1cc(O)c(O)c([N+](=O)[O-])c1)C(C)=O [NITECAPONE] | 210000 |
